From patent US20250090510A1, “eIF4G1-eIF1 INHIBITORS AND USE THEREOF” (YEDA RESEARCH AND DEVELOPMENT CO. LTD., priority 2022, published 2025)

Biological target: T1, eIF1 (Homo sapiens, UniProt P41567)
T1 construct: made in house; host or cells: E. coli BL21
Assay: Intrinsic fluorescence of His-eIF1
Type: binding
Details: 0-256 μM, 5 minutes
Description: FIGS. 1A-G: Identification and initial characterization of eIF1-eIF4G1 inhibitors using a high-throughput drug screen (HTS). (1A) A flowchart describing the steps of the recombinant eIF1-eIF4G1 split-RL HTS. (1B) Selection of drugs that inhibit leaky scanning. HEK293T cells were transfected with a short 5′UTR bearing GFP reporter gene described on the top, treated with the indicated HTS hits, and then analyzed by western blot with GFP antibody. US and DS denote upstream and downstream AUG initiation sites, respectively. (1C) A graph showing the change in the ratio of the upstream and downstream AUG following treatment with the indicated drugs. (1D) The chemical structure of the eIF1-eIF4G1 inhibitors, i14G1-10 and i14G1-12. (1E) His-tagged eIF4G1 and His-tagged eIF1 were expressed in BL21 bacteria and purified using nickel NTA beads. Purified His-tagged eIF4G1 and His-tagged eIF1 were incubated with the indicated doses of either i14G1-10 (0-256 μM) or i14G1-12 (0-256 μM) for 5 minutes, followed by fluorescence measurement. […] IC50 was calculated using Graphpad prism 9. […]
Intrinsic fluorescence of His-eIF1 and His-eIF4G1. […] After 5 minutes, fluorescence (280/350) was measured on Cytation 5 multi-mode reader (Biotek). The fluorescence intensity values corresponding to respective concentration in both i14G1-10 and i14G1-12 treatments were plotted and IC50 was calculated using GraphPad Prism 9.0. […]

T1 sequence (P41567 whole entry): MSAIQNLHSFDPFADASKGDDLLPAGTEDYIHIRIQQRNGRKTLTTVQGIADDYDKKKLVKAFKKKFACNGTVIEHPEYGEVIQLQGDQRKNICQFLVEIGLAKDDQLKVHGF

Row | IC50 (excitation 274 nm, emission 304 nm, read-out: IC-50, decrease of eIF1 intrinsic fluorescence) [µM] | Compound | intrinsic fluorescence of eIF1
1 | 54 | Cn1ccnc1S/C(=C/C=C(C#N)C#N)c1ccc(Cl)cc1 [i14G1-12] | –
2 | – | O=C(/C=C/Sc1ccc(C(F)(F)F)cn1)c1ccccc1 [i14G1-10] | almost unchanged
